# Test results published in patent US7060486B2, “Inhibition of sulfate-reducing-bacteria-mediated degradation using bacteria which secrete antimicrobials” (priority 1998, dated 2006).
# Entries after “also recorded” stand apart in the source; their conditions may differ. Bridge positions count the residues as written; N and C are the ends. Square brackets hold non-standard residues; d marks the D form. Peptide text beside a SMILES is read from it. * marks the point of attachment. X1 = CC[C@H](C)CCCCC(=O)*; Dab = NCC[C@H](N)C(=O)O
# Key:
# [1] = system: D. vulgaris (ATCC 29579); test: SRB inhibitory assay: viability after one-hour exposure, MPN technique; format: cell-based; conditions: one-hour exposure
# Experimental: (§1) D. vulgaris (ATCC 29579) and D. gigas (ATCC 19364) were obtained from the American Type Culture Collection and cultivated in 15 mL screwcap tubes with 10 mL of modified Baar's medium (ATCC medium 1249) supplemented with 100 μL each of the oxygen-scavengers 4% sodium sulfide and Oxyrase (Oxyrase Inc., Mansfeld, Ohio). Initial cultures were grown from −85° C. glycerol stocks; all subsequent cultures were grown with a 3% inoculum from the initial culture maintained at 30° C. without shaking. […] SRB were also cultured periodically in the presence of 0.1% ferrous ammonium sulfate, and the presence of these sulfate-reducers was confirmed by the detection of black iron sulfide in the culture tubes. The desulfoviridin assay was also performed after each MPN assay to confirm the presence of D. vulgaris or D. gigas by its red color under UV light due to the release of the chromophore of the pignment desulfoviridin. (Postgate, 1984).
# (§2) For determining the viability indices (Romeo, et al., 1988) of SRB, a late-exponential phase culture (O.D600 0.16 to 0.19 which corresponded to an initial cell number of 5–9×10^4 cells/mL) was exposed to various concentrations of antimicrobials for 1 hour at 30° C. One mL of cells was harvested, washed once in fresh modified Baar's medium to remove cellular debris, and resuspended in 1 mL of fresh modified Baar's medium supplemented with 10 μL each of Oxyrase (Oxyrase Inc., Mansfeld, Ohio) and 4% sodium sulphide. Aliquots of 450 μL were dispensed in 500 μL sterile eppendorf tubes and appropriate amounts of antimicrobials added and incubated at 30° C. The effectiveness of treatment was determined by the multiple-tube most-probable-number (MPN) fermentation technique. (Anonymous. Multiple-tube fermentation technique for members of the coliform group, pp. 9–45 to 9–51. In A. E. Greenberg, L. S. Clesceri, and A. D. Eaton (eds.), Standard Methods for the Examination of Water and Wastewater, 18 ed. American Public Health Association, American Water Works Association, and Water Pollution Control Federation, New York (1992)) (hereafter, Greenberg, 1992).
# (§3) The MPN test for enumerating SRB was performed in three 12 mL tubes with a 1000 μL inoculum of SRB, three 12 mL tubes with a 500 μL inoculum, and three 12 mL tubes with a 100 μL inoculum. All nine tubes contained a final volume of 10 mL of modified Baar's medium supplemented with 100 μL each of 4% sodium sulfide and Oxyrase (Oxyrase Inc., Mansfeld, Ohio). The tubes were monitored for 72 hours to determine the number of tubes that were positive for growth. Growth was determined by the increase in culture turbidity, and the MPN index/mL was calculated using the Thomas formula. (Greenberg 1992).
# [2] = system: D. vulgaris; test: Susceptibility of SRB cultures to antibiotics and inorganics; format: cell-based
# Experimental: (§4) D. vulgaris and D. gigas were incubated in the presence of various antimicrobial peptides, and their viability after one-hour exposure was determined. […] D. gigas was inhibited by anthraquinone at 100 μg/mL (Cooling et al., 1996), and both SRB were inhibited by sodium molybdate at 100 μg/mL. This is similar to the observation of Saleh, et al., 1964, who surveyed nearly 200 compounds for their SRB-inhibitory activity and noted that SRB show a high degree of resistance to inhibitory compounds (Id.).
# [3] = system: SRB (D. vulgaris) on 304 stainless steel; test: Continuous reactor with 304 stainless steel and SRB, electrochemical impedance spectroscopy
# Experimental: Batch culture corrosion experiments using SAE 1018 mild steel coupons (2.5 cm diameter, 1.2 mm thick) were performed in triplicates in 250 mL Erlenmeyer flasks at 30° C. without shaking as described previously (Jayaraman et al., 1997a). A continuous reactor (Jayaraman et al., 1997c) was also used to develop biofilms on 304 stainless steel and monitor corrosion using electrochemical impedance spectroscopy (EIS) in a minimum of two independent reactors using a Solarton-Schlumberger electrochemical measurement unit (SI 1280, Schlumberger Technical Instruments Division, San Jose, Calif.) interfaced to a Macintosh computer (PowerMac 7100/80, Apple Computers, Cupertino, Calif.) running EISIS electrochemical experimentation software (University of California, Irvine) (similar commercial software, THALES, can also be used). The open circuit potential (OCP) was measured as the potential between the metal specimen and a Ag/AgCl reference electrode, and the polarization resistance (Rp) was determined as the low-frequency value of the impedance (where the imaginary part of the impedance was zero or negligible). Continuous culture corrosion rates were estimated as the inverse of the polarization resistance (Macdonald, D. D. and M. C. H. McCubre, Applications of impedance spectroscopy, p. 262–267. In J. R. Macdonald (ed.), Impedance spectroscopy: Emphasizing solid materials and systems, John Wiley & Sons, New York (1987); Stem, M., Journal of Electrochemical Society, 105(11):638–647 (1958)).
# A continuous reactor was used to develop biofilms on metal surfaces as previously described (Jayaraman et al., 1997c). Electrochemical impedance spectroscopy (EIS) was used to obtain impedance data in at least duplicate experiments using a Solarton-Schlumberger electrochemical measurement unit (SI 1280, Schlumberger Technical Instruments Division, San Jose, Calif.) interfaced to a Macintosh computer (PowerMac 7100/80, Apple Computers, Cupertino, Calif.) running EISIS electrochemical experimentation software (University of California, Irvine) (THALES, a similar commercial software, can also be used). The open-circuit potential (OCP) was measured as the potential between the metal specimen and the reference electrode (Ag/AgCl), and the polarization resistance was determined as the dc limit of the impedance using the ANALEIS software developed by Mansfeld et al. (ASTM Special Technical Protocol 1154:186 (1992)). […]
# [4] = system: SRB (D. vulgaris) on SAE 1018 mild steel; test: Continuous reactor with SAE 1018 mild steel and SRB, electrochemical impedance spectroscopy
# Text: A continuous reactor was used to develop biofilms on metal surfaces as previously described (Jayaraman et al., 1997c). Electrochemical impedance spectroscopy (EIS) was used to obtain impedance data in at least duplicate experiments using a Solarton-Schlumberger electrochemical measurement unit (SI 1280, Schlumberger Technical Instruments Division, San Jose, Calif.) interfaced to a Macintosh computer (PowerMac 7100/80, Apple Computers, Cupertino, Calif.) running EISIS electrochemical experimentation software (University of California, Irvine) (THALES, a similar commercial software, can also be used). The open-circuit potential (OCP) was measured as the potential between the metal specimen and the reference electrode (Ag/AgCl), and the polarization resistance was determined as the dc limit of the impedance using the ANALEIS software developed by Mansfeld et al. (ASTM Special Technical Protocol 1154:186 (1992)). Continuous culture corrosion rates were estimated from the experimental polarization resistance Rp based on the Stern-Geary equation Rp=B/Icorr, where B is a parameter depending on the Tafel slopes and icorr is the corrosion current density which can be converted into a corrosion rate using Faraday's law (Mansfeld, F., The polarization resistance technique for measuring corrosion currents, In Fontana, M. G., Staehle, R. W. (ed.), Advances in Corrosion Science and Technology, Plenum Press, New York (1976)).
# A 3% (vol/vol) SRB inoculum (culture age 24–48 hours) was added to the reactor after 3 to 5 days of aerobic biofilm development. […] All antimicrobials were simultaneously added to the nutrient feed and the reactor at appropriate concentrations.
# [5] = system: P. fragi K; test: Growth of P. fragi K in overnight suspension cultures with antimicrobials; format: cell-based; conditions: 100 μg/mL, overnight suspension culture
# [6] = system: D. vulgaris; conditions: literature (Saleh 1964/Postgate 1984; Odom and Singleton 1993), suspension cultures; cited from earlier work
# [7] = system: D. gigas; test: Susceptibility of SRB cultures to antibiotics and inorganics; format: cell-based
# Experimental: as §4
# [8] = system: B. polymyxa 10401; test: Susceptibility of host strains to purified antimicrobials (plate counts); format: cell-based; conditions: 50 μg/mL, one hour exposure at 30° C.
# Experimental: (§5) To determine the susceptibility of the hosts B. subtilis BE1500 and B. polymyxa to the expressed antimicrobials, these strains were grown from a single colony in 25 mL of LB medium with shaking at 37° C. to an O.D600 of 0.40–0.45. One mL aliquots were collected, washed with fresh LB medium and resuspended in 100 μL fresh LB medium in sterile eppendorf tubes. The antimicrobials indolicidin and bactenecin were added (50–100 μg/mL) and the tubes were incubated at 30° C. for one hour without shaking. Appropriate dilutions were spread on LB agar plates and incubated overnight at 37° C. to determine the extent of survival. The results were confirmed by performing two independent experiments.
# [9] = system: B. subtilis BE1500; test: as above; format: cell-based
# Experimental: as §5
# [10] = system: B. subtilis WB600; test: as above; format: cell-based; conditions: 50 μg/mL, one hour exposure at 30° C.
# [11] = system: Escherichia coli; conditions: 100 μg/mL; cited from earlier work
# [12] = system: D. gigas (ATCC 19364); test: SRB inhibitory assay: viability after one-hour exposure, MPN technique; format: cell-based; conditions: 100 μg/mL, one-hour exposure
# Experimental: as §1, §2, §3
# [13] = 100 μg/mL added to P. fragi K biofilm 24 hours before D. vulgaris
# [14] = 100 μg/mL added to P. fragi K biofilm before D. vulgaris
compound,measurement,setting,value
"CC[C@H](C)[C@H](N)C(=O)N[C@@H](CC(C)C)C(=O)N1CCC[C@H]1C(=O)N[C@@H](Cc1c[nH]c2ccccc12)C(=O)N[C@@H](CCCCN)C(=O)N[C@@H](Cc1c[nH]c2ccccc12)C(=O)N1CCC[C@H]1C(=O)N[C@@H](Cc1c[nH]c2ccccc12)C(=O)N[C@@H](Cc1c[nH]c2ccccc12)C(=O)N1CCC[C@H]1C(=O)N[C@@H](Cc1c[nH]c2ccccc12)C(=O)N[C@@H](CCCN=C(N)N)C(=O)N[C@@H](CCCN=C(N)N)C(N)=O [Ind-NH2, indolicidin]",reduction of viability,"[1]; 25 μg/mL, late-exponential-phase culture",99.3%
CC1(C)S[C@@H]2[C@H](NC(=O)[C@H](N)c3ccccc3)C(=O)N2[C@H]1C(=O)O [ampicillin],concentration that inhibits the strain,[2],20 µg/mL
same,"effect on D. vulgaris, in words",[3]; [13],completely inhibited
same,time after D. vulgaris addition without change in impedance spectra and Rp,[3]; [14],≥ 100 h
same,"effect on SRB, in words","[3]; antimicrobial added to dual-culture reactor after SRB, ampicillin 200 μg/mL, chloramphenicol 100 μg/mL, ammonium molybdate 200 μg/mL",SRB had not been killed
same,"effect on D. vulgaris, in words",[4]; [13],completely inhibited
same,time after D. vulgaris addition without change / increase in Rp,[4]; [14],≥ 100 h
same,"effect on SRB, in words",[4]; antimicrobial added after SRB growth on mild steel,did not change Rp; also recorded: no inhibition of SRB
same,time to onset of SRB-induced corrosion after ampicillin containing medium was discontinued,[4]; mild steel reactors,≤ 36 h
same,"growth of P. fragi K, in words",[5],grew to saturation
same,concentration that inhibits D. vulgaris,[6],1 µg/mL
O=C1c2ccccc2C(=O)c2ccccc21 [anthraquinone],concentration that inhibits the strain,[7],100 µg/mL
CC[C@H](C)[C@@H]1NC(=O)[C@H](CCCNC(=N)N)NC(=O)[C@@H](NC(=O)[C@H](CC(C)C)NC(=O)[C@@H](N)CCCNC(=N)N)CSSC[C@@H](C(=O)N[C@@H](CCCNC(=N)N)C(=O)O)NC(=O)[C@H](C(C)C)NC(=O)[C@H](CCCNC(=N)N)NC(=O)[C@H]([C@@H](C)CC)NC(=O)[C@H](C(C)C)NC(=O)[C@H](C(C)C)NC1=O [bactenecin] (H-RLCRIVVIRVCR-OH; disulfide 3-11; N-terminus and C-terminus assumed),Fold-reduction in cell number,[8],2
same,factor by which the strain is more resistant to bactenecin than to indolicidin,[9],60
same,Fold-reduction in cell number,"[9]; 50 μg/mL, one hour exposure at 30° C.",100
same,Fold-reduction in cell number,[10],400
same,inhibition,[11],95%
O=C(N[C@H](CO)[C@H](O)c1ccc([N+](=O)[O-])cc1)C(Cl)Cl [chloramphenicol],concentration that inhibits the strain,[2],20 µg/mL
same,concentration that inhibits D. vulgaris,[6],3 µg/mL
CC[C@H](C)CCCCC(=O)N[C@@H](CCN)C(=O)N[C@H](C(=O)N[C@@H](CCN)C(=O)N[C@H]1CCNC(=O)[C@H]([C@@H](C)O)NC(=O)[C@H](CCN)NC(=O)[C@H](CCN)NC(=O)[C@H](CC(C)C)NC(=O)[C@@H](Cc2ccccc2)NC(=O)[C@H](CCN)NC1=O)[C@@H](C)O [polymyxin B] (X1-[Dab]T[Dab][Dab][Dab][dF]L[Dab][Dab]T; lactam 4-C (inferred); N-terminus assumed),reduction of viability,[12],approximately 90%
same,reduction of viability,[1]; 100 μg/mL,approximately 90%
same,concentration that inhibits D. vulgaris,[6],100 µg/mL
[Na+].[Na+].[O]=[Mo](=[O])([O-])[O-] [sodium molybdate],concentration that inhibits the strain,[7],100 µg/mL
same,concentration that inhibits the strain,[2],100 µg/mL
gramicidin D,reduction of viability,[12],approximately 90%
same,reduction of viability,[1]; 100 μg/mL,approximately 90%
